Tests used:
Type in all cases: in vivo
[1] = test system: ryegrass, Italian (Italian ryegrass, Lolium multiflorum); test: Test A postemergence application, visual injury rating; details: approx. 10 d, 0 = no effect, 100 = complete control
Text: (§1) Seeds of plant species selected from barnyardgrass (Echinochloa crus-galli), kochia (Kochia scoparia), ragweed (common ragweed, Ambrosia elation), ryegrass, Italian (Italian ryegrass, Lolium multiflorum), foxtail, giant (giant foxtail, Setaria faberii), and pigweed (Amaranthus retroflexus), were planted into a blend of loam soil and sand and treated preemergence with a directed soil spray using test chemicals formulated in a non-phytotoxic solvent mixture which included a surfactant. At the same time, plants selected from these weed species and also blackgrass (Alopecurus myosuroides), galium (catchweed bedstraw, Galium aparine), wheat (Triticum aestivum), and corn (Zea mays) were planted in pots containing the same blend of loam soil and sand and treated with postemergence applications of test chemicals formulated in the same manner. Plants ranged in height from 2 to 10 cm and were in the one- to two-leaf stage for the postemergence treatment. Treated plants and untreated controls were maintained in a greenhouse for approximately 10 d, after which time all treated plants were compared to untreated controls and visually evaluated for injury. Plant response ratings, summarized in Table A, are based on a 0 to 100 scale where 0 is no effect and 100 is complete control. A dash (-) response means no test result.

[2] = test system: barnyardgrass (Echinochloa crus-galli); test: as above; details: approx. 10 d, 0 = no effect, 100 = complete control
Text: as §1

[3] = test system: galium (catchweed bedstraw, Galium aparine); test: as above; details: approx. 10 d, 0 = no effect, 100 = complete control
Text: as §1

[4] = test system: wheat (Triticum aestivum); test: as above; details: approx. 10 d, 0 = no effect, 100 = complete control
Text: as §1

[5] = test system: blackgrass (Alopecurus myosuroides); test: as above; details: approx. 10 d, 0 = no effect, 100 = complete control
Text: as §1

[6] = test system: pigweed (Amaranthus retroflexus); test: as above; details: approx. 10 d, 0 = no effect, 100 = complete control
Text: as §1

[7] = test system: foxtail, giant (giant foxtail, Setaria faberii); test: as above; details: approx. 10 d, 0 = no effect, 100 = complete control
Text: as §1

[8] = test system: ragweed (common ragweed, Ambrosia elation); test: as above; details: approx. 10 d, 0 = no effect, 100 = complete control
Text: as §1

kochia (Kochia scoparia) [9] = test: as above; details: approx. 10 d, 0 = no effect, 100 = complete control
Text: as §1

corn (Zea mays) = test: as above; details: approx. 10 d, 0 = no effect, 100 = complete control
Text: as §1

rice (Oryza sativa) = test: Test B flooded paddy test, visual plant response rating; details: 250 g ai/ha; applied to paddy water at 2-leaf stage; rated after 13 to 15 days; scale 0 to 100, 0 is no effect, 100 is complete control
Text: (§2) At time of treatment, test pots were flooded to 3 cm above the soil surface, treated by application of test compounds directly to the paddy water, and then maintained at that water depth for the duration of the test. Treated plants and controls were maintained in a greenhouse for 13 to 15 days, after which time all species were compared to controls and visually evaluated. Plant response ratings, summarized in Table B, are based on a scale of 0 to 100 where 0 is no effect and 100 is complete control. A dash (-) response means no test result.

[10] = test system: barnyardgrass (Echinochloa crus-galli); test: as above; details: 250 g ai/ha; applied to paddy water at 2-leaf stage; rated after 13 to 15 days; scale 0 to 100, 0 is no effect, 100 is complete control
Text: as §2

[11] = test system: sedge, umbrella (small-flower umbrella sedge, Cyperus difformis); test: as above; details: 250 g ai/ha; applied to paddy water at 2-leaf stage; rated after 13 to 15 days; scale 0 to 100, 0 is no effect, 100 is complete control
Text: as §2

[12] = test system: ducksalad (Heteranthera limosa); test: as above; details: 250 g ai/ha; applied to paddy water at 2-leaf stage; rated after 13 to 15 days; scale 0 to 100, 0 is no effect, 100 is complete control
Text: as §2

[13] = test system: ryegrass, Italian (Italian ryegrass, Lolium multiflorum); test: Test A preemergence, directed soil spray, visual injury rating; details: approx. 10 d, 0 = no effect, 100 = complete control
Text: as §1

[14] = test system: barnyardgrass (Echinochloa crus-galli); test: as above; details: approx. 10 d, 0 = no effect, 100 = complete control
Text: as §1

[15] = test system: pigweed (Amaranthus retroflexus); test: as above; details: approx. 10 d, 0 = no effect, 100 = complete control
Text: as §1

[16] = test system: foxtail, giant (giant foxtail, Setaria faberii); test: as above; details: approx. 10 d, 0 = no effect, 100 = complete control
Text: as §1

[17] = test system: ragweed (common ragweed, Ambrosia elation); test: as above; details: approx. 10 d, 0 = no effect, 100 = complete control
Text: as §1

kochia (Kochia scoparia) [18] = test: as above; details: approx. 10 d, 0 = no effect, 100 = complete control
Text: as §1

SMILES | Ryegrass, Italian plant response rating (0 to 100 scale) ([1]; 125 g ai/ha) | Ryegrass, Italian plant response rating (0 to 100 scale) ([1]; 500 g ai/ha) | Barnyardgrass plant response rating (0 to 100 scale) ([2]; 125 g ai/ha) | Barnyardgrass plant response rating (0 to 100 scale) ([2]; 500 g ai/ha) | Galium plant response rating (0 to 100 scale) ([3]; 125 g ai/ha) | Galium plant response rating (0 to 100 scale) ([3]; 500 g ai/ha) | Wheat plant response rating (0 to 100 scale) ([4]; 125 g ai/ha) | Wheat plant response rating (0 to 100 scale) ([4]; 500 g ai/ha) | Blackgrass plant response rating (0 to 100 scale) ([5]; 125 g ai/ha) | Blackgrass plant response rating (0 to 100 scale) ([5]; 500 g ai/ha) | Pigweed plant response rating (0 to 100 scale) ([6]; 125 g ai/ha) | Pigweed plant response rating (0 to 100 scale) ([6]; 500 g ai/ha) | Foxtail, Giant plant response rating (0 to 100 scale) ([7]; 125 g ai/ha) | Foxtail, Giant plant response rating (0 to 100 scale) ([7]; 500 g ai/ha) | Ragweed plant response rating (0 to 100 scale) ([8]; 125 g ai/ha) | Ragweed plant response rating (0 to 100 scale) ([8]; 500 g ai/ha) | Kochia plant response rating (0 to 100 scale) (kochia (Kochia scoparia) [9]; 125 g ai/ha) | Kochia plant response rating (0 to 100 scale) (kochia (Kochia scoparia) [9]; 500 g ai/ha) | Corn plant response rating (0 to 100 scale) (corn (Zea mays); 125 g ai/ha) | Corn plant response rating (0 to 100 scale) (corn (Zea mays); 500 g ai/ha) | also measured
Cc1nnc2n1CC(c1ccc(Cl)cc1)C2C(=O)Nc1cccc(F)c1F (centres unmarked) [Compound 5] | 0 | 20 | 20 | 80 | 40 | 70 | 0 | 20 | 0 | 20 | 0 | 20 | 30 | 80 | 0 | 20 | 0 | 30 | 20 | 30 | Plant response rating, Flood, Rice (rice (Oryza sativa)): 0; Plant response rating, Flood, Barnyardgrass [10]: 40; Plant response rating, Flood, Sedge, Umbrella [11]: 0; Plant response rating, Flood, Ducksalad [12]: 20; Ryegrass, Italian plant response rating (0 to 100 scale) ([13]; 125 g ai/ha): 20; Ryegrass, Italian plant response rating (0 to 100 scale) ([13]; 500 g ai/ha): 30; Barnyardgrass plant response rating (0 to 100 scale) ([14]; 125 g ai/ha): 30; Barnyardgrass plant response rating (0 to 100 scale) ([14]; 500 g ai/ha): 80; Pigweed plant response rating (0 to 100 scale) ([15]; 125 g ai/ha): 0; Pigweed plant response rating (0 to 100 scale) ([15]; 500 g ai/ha): 0; Foxtail, Giant plant response rating (0 to 100 scale) ([16]; 125 g ai/ha): 50; Foxtail, Giant plant response rating (0 to 100 scale) ([16]; 500 g ai/ha): 90; Ragweed plant response rating (0 to 100 scale) ([17]; 125 g ai/ha): 0; Ragweed plant response rating (0 to 100 scale) ([17]; 500 g ai/ha): 40; Kochia plant response rating (0 to 100 scale) (kochia (Kochia scoparia) [18]; 125 g ai/ha): 0; Kochia plant response rating (0 to 100 scale) (kochia (Kochia scoparia) [18]; 500 g ai/ha): 50
Cc1nnc2n1CC(c1ccc(C(F)(F)F)cc1)C2C(=O)Nc1ccccc1C(F)(F)F (centres unmarked) [Compound 6] | 0 | 20 | 0 | 40 | 0 | 30 | 0 | 0 | 0 | 20 | 0 | 0 | 0 | 30 | 0 | 0 | 0 | 0 | 0 | 0 | Plant response rating, Flood, Rice (rice (Oryza sativa)): 0; Plant response rating, Flood, Barnyardgrass [10]: 0; Plant response rating, Flood, Sedge, Umbrella [11]: 0; Plant response rating, Flood, Ducksalad [12]: 0; Ryegrass, Italian plant response rating (0 to 100 scale) ([13]; 125 g ai/ha): 40; Ryegrass, Italian plant response rating (0 to 100 scale) ([13]; 500 g ai/ha): 60; Barnyardgrass plant response rating (0 to 100 scale) ([14]; 125 g ai/ha): 0; Barnyardgrass plant response rating (0 to 100 scale) ([14]; 500 g ai/ha): 40; Pigweed plant response rating (0 to 100 scale) ([15]; 125 g ai/ha): 0; Pigweed plant response rating (0 to 100 scale) ([15]; 500 g ai/ha): 40; Foxtail, Giant plant response rating (0 to 100 scale) ([16]; 125 g ai/ha): 0; Foxtail, Giant plant response rating (0 to 100 scale) ([16]; 500 g ai/ha): 90; Ragweed plant response rating (0 to 100 scale) ([17]; 125 g ai/ha): 0; Ragweed plant response rating (0 to 100 scale) ([17]; 500 g ai/ha): 0; Kochia plant response rating (0 to 100 scale) (kochia (Kochia scoparia) [18]; 125 g ai/ha): 0; Kochia plant response rating (0 to 100 scale) (kochia (Kochia scoparia) [18]; 500 g ai/ha): 0
O=C(Nc1cccc(F)c1F)C1c2nncn2CC1c1ccc(Cl)cc1 (centres unmarked) [Compound 7] | 0 | 20 | 20 | 70 | 40 | 50 | 0 | 20 | 0 | 0 | 0 | 50 | 20 | 70 | 0 | 60 | 0 | 40 | 20 | 30 | Plant response rating, Flood, Rice (rice (Oryza sativa)): 15; Plant response rating, Flood, Barnyardgrass [10]: 0; Plant response rating, Flood, Sedge, Umbrella [11]: 0; Plant response rating, Flood, Ducksalad [12]: 50; Ryegrass, Italian plant response rating (0 to 100 scale) ([13]; 125 g ai/ha): 0; Ryegrass, Italian plant response rating (0 to 100 scale) ([13]; 500 g ai/ha): 0; Barnyardgrass plant response rating (0 to 100 scale) ([14]; 125 g ai/ha): 30; Barnyardgrass plant response rating (0 to 100 scale) ([14]; 500 g ai/ha): 70; Pigweed plant response rating (0 to 100 scale) ([15]; 125 g ai/ha): 0; Pigweed plant response rating (0 to 100 scale) ([15]; 500 g ai/ha): 20; Foxtail, Giant plant response rating (0 to 100 scale) ([16]; 125 g ai/ha): 40; Foxtail, Giant plant response rating (0 to 100 scale) ([16]; 500 g ai/ha): 80; Ragweed plant response rating (0 to 100 scale) ([17]; 125 g ai/ha): 0; Ragweed plant response rating (0 to 100 scale) ([17]; 500 g ai/ha): 50; Kochia plant response rating (0 to 100 scale) (kochia (Kochia scoparia) [18]; 125 g ai/ha): 0; Kochia plant response rating (0 to 100 scale) (kochia (Kochia scoparia) [18]; 500 g ai/ha): 40
CCc1nnc2n1CC(c1ccc(C(F)(F)F)cc1)C2C(=O)Nc1cccc(F)c1F (centres unmarked) [Compound 8, N-(2,3-difluorophenyl)-3-ethyl-6,7-dihydro-6-[4-(trifluoromethyl)phenyl]-5H-pyrrolo[2,1-c]-1,2,4-triazole-7-carboxamide] | 0 | 0 | 20 | 50 | 30 | 50 | 0 | 0 | 0 | 0 | 20 | 60 | 20 | 60 | 0 | 20 | 0 | 40 | 0 | 0 | Plant response rating, Flood, Rice (rice (Oryza sativa)): 0; Plant response rating, Flood, Barnyardgrass [10]: 0; Plant response rating, Flood, Sedge, Umbrella [11]: 0; Plant response rating, Flood, Ducksalad [12]: 40; Ryegrass, Italian plant response rating (0 to 100 scale) ([13]; 125 g ai/ha): 0; Ryegrass, Italian plant response rating (0 to 100 scale) ([13]; 500 g ai/ha): 0; Barnyardgrass plant response rating (0 to 100 scale) ([14]; 125 g ai/ha): 30; Barnyardgrass plant response rating (0 to 100 scale) ([14]; 500 g ai/ha): 70; Pigweed plant response rating (0 to 100 scale) ([15]; 125 g ai/ha): 20; Pigweed plant response rating (0 to 100 scale) ([15]; 500 g ai/ha): 50; Foxtail, Giant plant response rating (0 to 100 scale) ([16]; 125 g ai/ha): 30; Foxtail, Giant plant response rating (0 to 100 scale) ([16]; 500 g ai/ha): 90; Ragweed plant response rating (0 to 100 scale) ([17]; 125 g ai/ha): 0; Ragweed plant response rating (0 to 100 scale) ([17]; 500 g ai/ha): 0; Kochia plant response rating (0 to 100 scale) (kochia (Kochia scoparia) [18]; 125 g ai/ha): 0
